Results from ChEMBL document CHEMBL1201862, “PubChem BioAssay data set” (2004).
Active and inactive are the calls of the source.

Experiments:
[1] = Potency on glucagon-like peptide 1 release, dose-response in NCI-H716 cell line, half maximal inhibitory concentration (AID 1117344); type: functional, cell-based
[2] = glucagon-like peptide-1 release potency in STC-1, concentration-response, half-maximal inhibitory concentration in the STC-1 line (AID 1117345); type: functional, cell-based
Cytochrome P450 2C19 = Cytochrome P450 2C19 (Homo sapiens, UniProt P33261); experiment: Cytochrome panel assay with activity outcomes. Panel member name: p450-cyp2c19 Compounds with AC50 equal or less than 10 uM are considered active; type: functional; details: read-out: AC50
Cytochrome P450 2D6 = Cytochrome P450 2D6 (Homo sapiens, UniProt P10635);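 note: CYP2D6 member of a cytochrome P450 panel assay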
Cytochrome P450 1A2 = molecular target: T1, Cytochrome P450 1A2 (Homo sapiens, UniProt P05177);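 note: PubChem cytochrome P450 panel assay, CYP1A2 panel member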
T1 sequence (P05177 whole entry): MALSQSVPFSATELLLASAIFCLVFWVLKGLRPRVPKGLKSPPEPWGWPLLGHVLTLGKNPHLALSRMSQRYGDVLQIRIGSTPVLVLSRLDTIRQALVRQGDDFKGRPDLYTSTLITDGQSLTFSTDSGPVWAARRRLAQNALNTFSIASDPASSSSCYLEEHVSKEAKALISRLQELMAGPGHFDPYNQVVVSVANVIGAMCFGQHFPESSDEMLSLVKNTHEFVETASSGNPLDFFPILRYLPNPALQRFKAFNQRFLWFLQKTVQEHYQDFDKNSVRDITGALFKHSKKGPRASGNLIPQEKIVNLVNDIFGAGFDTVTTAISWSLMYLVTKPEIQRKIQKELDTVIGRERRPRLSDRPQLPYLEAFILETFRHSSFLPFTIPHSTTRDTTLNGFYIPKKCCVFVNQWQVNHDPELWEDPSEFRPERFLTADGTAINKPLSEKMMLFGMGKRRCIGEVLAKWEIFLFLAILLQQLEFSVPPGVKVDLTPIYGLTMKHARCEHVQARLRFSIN

[3] = molecular target: T2, Replicative DNA helicase DnaB (Mycobacterium tuberculosis, UniProt P9WMR3); experiment: DnaB intein splicing inhibitors, dose response, biochemical, cell-free fluorescence (AID 449749); type: functional
T2 sequence (P9WMR3 whole entry): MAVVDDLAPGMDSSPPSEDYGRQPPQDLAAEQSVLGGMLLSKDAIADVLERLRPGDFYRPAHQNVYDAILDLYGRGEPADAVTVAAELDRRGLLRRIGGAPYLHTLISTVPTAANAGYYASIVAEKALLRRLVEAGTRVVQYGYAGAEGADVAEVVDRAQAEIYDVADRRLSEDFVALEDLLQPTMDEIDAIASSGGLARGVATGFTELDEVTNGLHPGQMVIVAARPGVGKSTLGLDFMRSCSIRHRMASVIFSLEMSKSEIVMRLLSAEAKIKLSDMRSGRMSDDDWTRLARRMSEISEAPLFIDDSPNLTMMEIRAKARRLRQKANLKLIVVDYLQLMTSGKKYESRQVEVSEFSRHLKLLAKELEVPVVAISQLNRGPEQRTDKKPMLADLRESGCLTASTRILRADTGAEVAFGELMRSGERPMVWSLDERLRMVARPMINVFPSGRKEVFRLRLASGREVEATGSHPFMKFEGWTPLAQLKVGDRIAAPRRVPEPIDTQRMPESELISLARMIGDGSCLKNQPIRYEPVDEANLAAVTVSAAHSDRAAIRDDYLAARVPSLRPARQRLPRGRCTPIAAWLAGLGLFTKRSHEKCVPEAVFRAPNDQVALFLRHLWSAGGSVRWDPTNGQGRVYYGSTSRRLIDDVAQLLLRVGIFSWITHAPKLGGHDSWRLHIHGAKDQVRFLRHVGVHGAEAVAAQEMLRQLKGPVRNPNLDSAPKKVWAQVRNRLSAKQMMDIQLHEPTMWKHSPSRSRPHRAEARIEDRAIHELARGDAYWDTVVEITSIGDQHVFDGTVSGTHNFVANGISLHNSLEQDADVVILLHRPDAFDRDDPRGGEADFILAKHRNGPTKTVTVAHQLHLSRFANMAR

Paired box protein Pax-8 = Paired box protein Pax-8 (Homo sapiens, UniProt Q06710); experiment: PAX8 transcriptional activity inhibition in RMG-I – RMG-I cells, luciferase, cherry-pick, dose response (AID 687027); type: functional, cell-based;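 note: luciferase reporter driven by Pax8 target thyroperoxidase promoter measured by SteadyGlo luminescence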
Protein RecA = molecular target: T3, Protein RecA (Mycobacterium tuberculosis, UniProt P9WHJ3); experiment: Fluorescence Cell-Free Homogeneous Dose Retest to Identify Inhibitors of RecA-Intein Splicing Activity. [Related pubchem assays (depositor defined):AID2097, AID2223, AID489010, AID492950]; type: functional
T3 sequence (P9WHJ3 whole entry): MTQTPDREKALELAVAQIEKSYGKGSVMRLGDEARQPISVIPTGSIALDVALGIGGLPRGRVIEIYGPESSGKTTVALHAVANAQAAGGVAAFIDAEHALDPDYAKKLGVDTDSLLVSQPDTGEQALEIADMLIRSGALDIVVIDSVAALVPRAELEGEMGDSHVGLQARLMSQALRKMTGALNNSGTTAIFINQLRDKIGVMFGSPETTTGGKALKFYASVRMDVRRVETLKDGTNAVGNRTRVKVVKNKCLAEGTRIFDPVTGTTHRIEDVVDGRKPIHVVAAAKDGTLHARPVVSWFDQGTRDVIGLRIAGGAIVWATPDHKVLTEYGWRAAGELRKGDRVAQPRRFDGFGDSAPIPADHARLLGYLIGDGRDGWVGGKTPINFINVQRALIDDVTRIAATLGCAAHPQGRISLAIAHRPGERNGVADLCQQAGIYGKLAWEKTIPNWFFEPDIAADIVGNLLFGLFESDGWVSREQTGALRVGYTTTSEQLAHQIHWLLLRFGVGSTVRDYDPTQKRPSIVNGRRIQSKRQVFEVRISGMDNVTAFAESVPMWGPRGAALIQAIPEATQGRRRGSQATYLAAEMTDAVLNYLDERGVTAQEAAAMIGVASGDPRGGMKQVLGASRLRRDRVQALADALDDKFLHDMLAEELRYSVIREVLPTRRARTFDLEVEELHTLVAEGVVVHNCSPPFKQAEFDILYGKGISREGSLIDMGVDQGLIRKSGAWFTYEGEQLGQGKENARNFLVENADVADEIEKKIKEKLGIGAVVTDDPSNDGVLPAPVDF

[4] = general cell-killing toxicity readout – plate reader, dry powder samples, cytotoxicity control for PAX8 inhibitor project, dose response (AID 743021); type: functional, cell-based
[5] = Luminescent dose response cell-based high throughput screening assay for inhibitors of the Janus kinase 2 mutant JAK2V617F. [Related pubchem assays: 1446 (Primary screen.), 1521 (Confirmation assay.), 1486 (Counter screen.)]; type: functional
BJ [6] = experiment: cells; type: functional, cell-based; details: Homo sapiens
BJ [7] = experiment: BJ-TERT-LT-ST fibroblast viability loss – cell-based, RAS-independent, luminescence, dose response (AID 1935); type: functional; details: Homo sapiens;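 note: BJ fibroblasts immortalized with TERT plus LT and ST oncogenes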
[8] = DRD fibroblast viability loss – cell-based, non-viral oncogenic, luminescence, dose response (AID 1934); type: functional; details: Homo sapiens
[9] = molecular target: T4, Heat shock factor protein 1 (Mus musculus, UniProt P38532); experiment: decrease of HSF1-responsive luciferase luminescence – cell-based, NIH3T3, dose retest, confirmation (AID 2382); type: functional;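 note: NIH3T3 fibroblasts with HSF1-driven luciferase reporter stressed by proteasome inhibitor MG132; luminescence from HSF1-driven luciferase expression after 8 hours of MG132 stress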
T4 sequence (P38532 whole entry): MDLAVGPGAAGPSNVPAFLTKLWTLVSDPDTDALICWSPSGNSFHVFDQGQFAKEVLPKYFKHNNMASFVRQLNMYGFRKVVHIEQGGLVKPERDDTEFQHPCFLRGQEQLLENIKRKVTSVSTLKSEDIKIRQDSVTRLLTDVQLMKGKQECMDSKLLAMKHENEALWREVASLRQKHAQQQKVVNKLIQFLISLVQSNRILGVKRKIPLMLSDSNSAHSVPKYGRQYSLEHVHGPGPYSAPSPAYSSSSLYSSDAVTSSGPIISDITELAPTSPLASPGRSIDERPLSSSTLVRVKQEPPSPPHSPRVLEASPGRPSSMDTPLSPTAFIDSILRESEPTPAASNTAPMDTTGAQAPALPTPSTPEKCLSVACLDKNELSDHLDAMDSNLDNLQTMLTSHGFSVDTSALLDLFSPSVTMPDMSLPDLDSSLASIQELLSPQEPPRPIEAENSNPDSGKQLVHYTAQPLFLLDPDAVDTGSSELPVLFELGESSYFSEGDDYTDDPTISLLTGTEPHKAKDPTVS

BJ [10] = experiment: BJ-TERT fibroblast viability loss – cell-based, RAS-independent, luminescence, dose response (AID 1933); type: functional; details: Homo sapiens
[11] = Trypanosoma cruzi growth suppression in host cells – NIH3T3 host cells, beta-gal luminescence, confirmation (AID 2044); type: functional, cell-based;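 note: intracellular parasites grown in NIH/3T3 mouse fibroblasts as host cells; luminescent beta-galactosidase reporter signal from transgenic T. cruzi replicating inside host cells; inhibitors lower the luminescence signal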
[12] = NIH3T3 cell viability loss – ATP luminescence, mouse fibroblasts, counter-screen, dose response (AID 2010); type: functional, cell-based;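 note: cells exposed to compound for about 90 hours before reading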

Paired box protein Pax-8, sequence (Q06710 whole entry): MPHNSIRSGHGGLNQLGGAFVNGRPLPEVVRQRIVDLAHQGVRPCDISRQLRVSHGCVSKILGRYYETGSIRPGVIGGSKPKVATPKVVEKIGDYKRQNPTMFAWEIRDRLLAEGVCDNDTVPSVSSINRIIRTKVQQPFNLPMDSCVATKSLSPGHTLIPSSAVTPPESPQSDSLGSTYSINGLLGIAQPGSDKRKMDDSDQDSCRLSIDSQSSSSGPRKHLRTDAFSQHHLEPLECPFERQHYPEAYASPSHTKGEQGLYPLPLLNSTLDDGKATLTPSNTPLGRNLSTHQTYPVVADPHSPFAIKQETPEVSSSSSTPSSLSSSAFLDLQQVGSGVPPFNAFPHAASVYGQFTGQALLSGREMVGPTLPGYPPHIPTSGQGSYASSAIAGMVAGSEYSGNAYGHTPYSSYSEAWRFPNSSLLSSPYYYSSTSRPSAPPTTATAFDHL
Cytochrome P450 2C19, sequence (P33261 whole entry): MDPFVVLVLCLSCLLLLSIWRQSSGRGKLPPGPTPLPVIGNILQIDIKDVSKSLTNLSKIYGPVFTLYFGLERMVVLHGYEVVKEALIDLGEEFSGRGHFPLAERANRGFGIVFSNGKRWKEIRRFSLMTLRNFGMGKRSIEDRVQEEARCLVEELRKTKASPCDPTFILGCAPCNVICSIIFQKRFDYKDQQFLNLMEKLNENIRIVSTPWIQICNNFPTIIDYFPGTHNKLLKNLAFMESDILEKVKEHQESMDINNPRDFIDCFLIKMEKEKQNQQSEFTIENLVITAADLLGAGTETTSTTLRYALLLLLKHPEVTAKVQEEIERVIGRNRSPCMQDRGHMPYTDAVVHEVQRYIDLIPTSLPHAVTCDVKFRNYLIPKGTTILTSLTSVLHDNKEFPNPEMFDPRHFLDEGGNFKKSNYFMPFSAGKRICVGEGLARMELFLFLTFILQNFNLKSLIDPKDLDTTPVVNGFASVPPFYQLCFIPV
Cytochrome P450 2D6, sequence (P10635 whole entry): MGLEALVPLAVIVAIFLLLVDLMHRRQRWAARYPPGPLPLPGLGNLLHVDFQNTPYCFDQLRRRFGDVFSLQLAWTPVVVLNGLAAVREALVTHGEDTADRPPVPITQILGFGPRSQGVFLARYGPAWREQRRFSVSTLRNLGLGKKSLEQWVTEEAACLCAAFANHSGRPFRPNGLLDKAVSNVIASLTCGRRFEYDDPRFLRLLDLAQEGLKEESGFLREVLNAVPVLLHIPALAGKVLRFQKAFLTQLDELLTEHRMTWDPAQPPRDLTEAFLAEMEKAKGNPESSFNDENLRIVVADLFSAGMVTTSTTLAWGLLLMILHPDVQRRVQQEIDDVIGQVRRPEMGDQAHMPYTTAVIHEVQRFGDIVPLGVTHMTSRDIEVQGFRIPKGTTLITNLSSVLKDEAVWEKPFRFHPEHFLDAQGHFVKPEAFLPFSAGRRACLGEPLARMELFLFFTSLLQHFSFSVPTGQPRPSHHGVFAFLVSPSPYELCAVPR

SMILES	IC50 [1]	IC50 [2]	AC50 (Cytochrome P450 2C19)	AC50 (Cytochrome P450 2D6)	AC50 (Cytochrome P450 1A2)	AC50 [3]	AC50 (Paired box protein Pax-8)	EC50 (Protein RecA)	AC50 [4]	IC50 [5]	EC50 (BJ [6])	EC50 (BJ [7])	EC50 [8]	EC50 [9]	EC50 (BJ [10])	EC50 [11]	EC50 [12]
CC[C@H](c1ccc(O)cc1)[C@@H](CC)c1ccc(O)cc1 [HEXESTROL]	> 40 µM (inactive)	6.88 µM (inactive)	3.16 µM (inconclusive)	15.8 µM (inconclusive)	12.6 µM (inconclusive)												
CCCCCCN(C(=O)CCl)c1ccccc1						7.25 µM (active)	6.26 µM (active)	4.45 µM (inconclusive)	7.01 µM (active)	1.19 µM (active)							
Cc1cccc(N(Cc2ccccc2)C(=O)CCl)c1						7.84 µM (active)	3.46 µM (active)	0.536 µM (active)	4.85 µM (active)	0.649 µM (active)	3.61 µM (active)	> 150 µM (inconclusive)	2.71 µM (inconclusive)	2.91 µM (active)	0.356 µM (inconclusive)	0.352 µM (active)	2.39 µM (active)
